Values after ≈ are worked out from the molar mass of the structure shown. Active and inactive are the calls of the source. The calls are words filed in the database; no cut-off is given here.
Key:
[1] = system: Escherichia coli; test: Substrate activity at Escherichia coli beta-lactamase NDM-1 assessed as compound hydrolysis by measuring kcat/km by Michaelis-Menten analysis
[2] = system: Escherichia coli; test: Antibacterial activity against beta-lactamase VIM2 producing Escherichia coli clinical isolate measured upto 128 ug/ml; assay type: functional, organism-based
[3] = Inhibition of Enterobacter cloacae IMP-1 using nitrocefin chromogenic substrate measured after 15 to 60 min at 25 degC by microplate reader
[4] = Inhibition of Escherichia coli beta-lactamase VIM-2 using nitrocefin chromogenic substrate measured after 15 to 60 min at 25 degC by microplate reader
[5] = system: Klebsiella pneumoniae; test: Inhibition of Metallo-beta-lactamase IMP-28 in Klebsiella pneumoniae clinical isolate assessed as MIC for meropenem antibacterial activity at 128 ug/ml (reference value: 4 ug/ml); details: dose 128.0 µg/ml
[6] = system: Enterobacter cloacae; test: Inhibition of Metallo-beta-lactamase IMP-1 in Enterobacter cloacae clinical isolate assessed as fold reduction in meropenem MIC at 64 ug/ml; details: dose 64.0 µg/ml
[7] = system: Klebsiella pneumoniae; test: Inhibition of Metallo-beta-lactamase IMP-28 in Klebsiella pneumoniae clinical isolate assessed as fold reduction in meropenem MIC at 128 ug/ml; details: dose 128.0 µg/ml
[8] = system: Escherichia coli; test: Inhibition of Metallo-beta-lactamase VIM-2 in Escherichia coli clinical isolate assessed as MIC for meropenem antibacterial activity at 64 ug/ml (reference value: 8 ug/ml); details: dose 64.0 µg/ml
[9] = system: Escherichia coli; test: Inhibition of Metallo-beta-lactamase NDM-1 in Escherichia coli clinical isolate assessed as fold reduction in meropenem MIC at 128 ug/ml; details: dose 128.0 µg/ml
[10] = system: Escherichia coli; test: Substrate activity at Escherichia coli beta-lactamase NDM-1 assessed as compound hydrolysis by measuring Km by Michaelis-Menten analysis
[11] = system: Enterobacter cloacae; test: Inhibition of Metallo-beta-lactamase IMP-1 in Enterobacter cloacae clinical isolate assessed as MIC for meropenem antibacterial activity at 128 ug/ml (reference value: 32 ug/ml); details: dose 128.0 µg/ml
[12] = Metabolic stability of the compound assessed as Klebsiella pneumoniae beta-lactamase IMP-28-mediated metabolism by (2R)-2-((R)-carboxy(2-phenylacetamido)methyl)-5-(((R)-carboxy(phenyl)methylthio)methyl)-5,6-dihydro-2H-1,3-thiazine-4-carboxylic acid by LC-MS analysis; assay type: ADME
[13] = system: Escherichia coli; test: Antibacterial activity against beta-lactamase NDM1 producing Escherichia coli clinical isolate measured upto 128 ug/ml; assay type: functional, organism-based
[14] = system: Escherichia coli; test: Inhibition of Metallo-beta-lactamase VIM-2 in Escherichia coli clinical isolate assessed as fold reduction in meropenem MIC at 32 ug/ml; details: dose 32.0 µg/ml
[15] = system: Klebsiella pneumoniae; test: Inhibition of Metallo-beta-lactamase IMP-28 in Klebsiella pneumoniae clinical isolate assessed as MIC for meropenem antibacterial activity at 64 ug/ml (reference value: 4 ug/ml); details: dose 64.0 µg/ml
[16] = Stability of the compound in Muller hinton broth assessed compound remaining measured after 15 hrs by HPLC analysis; assay type: physicochemical; details: Mueller Hinton broth, read-out: Stability
[17] = system: Enterobacter cloacae; test: Inhibition of Metallo-beta-lactamase IMP-1 in Enterobacter cloacae clinical isolate assessed as fold reduction in meropenem MIC at 128 ug/ml; details: dose 128.0 µg/ml
[18] = system: Escherichia coli; test: Substrate activity at Escherichia coli beta-lactamase VIM-2 assessed as compound hydrolysis by measuring Kcat/Km by Michaelis-Menten analysis
[19] = system: Escherichia coli; test: Substrate activity at Escherichia coli beta-lactamase VIM-2 assessed as compound hydrolysis by measuring Kcat by Michaelis-Menten analysis
[20] = system: Klebsiella pneumoniae; test: Substrate activity at Klebsiella pneumoniae beta-lactamase IMP-28 assessed as compound hydrolysis by measuring Km by Michaelis-Menten analysis
[21] = system: Escherichia coli; test: Inhibition of Metallo-beta-lactamase NDM-1 in Escherichia coli clinical isolate assessed as fold reduction in meropenem MIC at 64 ug/ml; details: dose 64.0 µg/ml
[22] = system: Escherichia coli; test: Inhibition of Metallo-beta-lactamase VIM-2 in Escherichia coli clinical isolate assessed as fold reduction in meropenem MIC at 128 ug/ml; details: dose 128.0 µg/ml
[23] = system: Escherichia coli; test: Substrate activity at Escherichia coli beta-lactamase NDM-1 assessed as compound hydrolysis by measuring Kcat by Michaelis-Menten analysis
[24] = system: Klebsiella pneumoniae; test: Inhibition of Metallo-beta-lactamase IMP-28 in Klebsiella pneumoniae clinical isolate assessed as fold reduction in meropenem MIC at 32 ug/ml; details: dose 32.0 µg/ml
[25] = system: Escherichia coli; test: Inhibition of Metallo-beta-lactamase NDM-1 in Escherichia coli clinical isolate assessed as MIC for meropenem antibacterial activity at 32 ug/ml (reference value: 32 ug/ml); details: dose 32.0 µg/ml
[26] = system: Escherichia coli; test: Inhibition of Metallo-beta-lactamase VIM-2 in Escherichia coli clinical isolate assessed as fold reduction in meropenem MIC at 64 ug/ml; details: dose 64.0 µg/ml
[27] = system: Klebsiella pneumoniae; test: Antibacterial activity against beta-lactamase IMP-28 producing Klebsiella pneumoniae clinical isolate measured upto 128 ug/ml; assay type: functional, organism-based
[28] = system: Klebsiella pneumoniae; test: Inhibition of Klebsiella pneumoniae beta Metallo-beta-lactamase IMP-28
[29] = Inhibition of Escherichia coli beta-lactamase NDM-1 using nitrocefin chromogenic substrate measured after 15 to 60 min at 25 degC by microplate reader
[30] = Stability of the compound assessed as Klebsiella pneumoniae beta-lactamase IMP-28-mediated degradation by measuring appearance of vinyl protons release measured after 120 mins by NMR spectra; assay type: ADME; details: 2 h
[31] = system: Klebsiella pneumoniae; test: Inhibition of Metallo-beta-lactamase IMP-28 in Klebsiella pneumoniae clinical isolate assessed as MIC for meropenem antibacterial activity at 32 ug/ml (reference value: 4 ug/ml); details: dose 32.0 µg/ml
[32] = system: Klebsiella pneumoniae; test: Substrate activity at Klebsiella pneumoniae beta-lactamase IMP-28 assessed as compound hydrolysis by measuring Kcat/Km by Michaelis-Menten analysis
[33] = system: Escherichia coli; test: Inhibition of Metallo-beta-lactamase VIM-2 in Escherichia coli clinical isolate assessed as MIC for meropenem antibacterial activity at 128 ug/ml (reference value: 8 ug/ml); details: dose 128.0 µg/ml
[34] = system: Enterobacter cloacae; test: Inhibition of Metallo-beta-lactamase IMP-1 in Enterobacter cloacae clinical isolate assessed as MIC for meropenem antibacterial activity at 32 ug/ml (reference value: 32 ug/ml); details: dose 32.0 µg/ml
[35] = system: Escherichia coli; test: Inhibition of Metallo-beta-lactamase NDM-1 in Escherichia coli clinical isolate assessed as MIC for meropenem antibacterial activity at 64 ug/ml (reference value: 32 ug/ml); details: dose 64.0 µg/ml
[36] = system: Enterobacter cloacae; test: Inhibition of Metallo-beta-lactamase IMP-1 in Enterobacter cloacae clinical isolate assessed as MIC for meropenem antibacterial activity at 64 ug/ml (reference value: 32 ug/ml); details: dose 64.0 µg/ml
[37] = system: Escherichia coli; test: Inhibition of Metallo-beta-lactamase NDM-1 in Escherichia coli clinical isolate assessed as fold reduction in meropenem MIC at 32 ug/ml; details: dose 32.0 µg/ml
[38] = Inhibition of Klebsiella pneumoniae beta-lactamase IMP-28 using nitrocefin chromogenic substrate measured after 15 to 60 min at 25 degC by microplate reader
[39] = system: Escherichia coli; test: Inhibition of Metallo-beta-lactamase NDM-1 in Escherichia coli clinical isolate assessed as MIC for meropenem antibacterial activity at 128 ug/ml (reference value: 32 ug/ml); details: dose 128.0 µg/ml
[40] = system: Enterobacter cloacae; test: Inhibition of Metallo-beta-lactamase IMP-1 in Enterobacter cloacae clinical isolate assessed as fold reduction in meropenem MIC at 32 ug/ml; details: dose 32.0 µg/ml
[41] = system: Escherichia coli; test: Inhibition of Metallo-beta-lactamase VIM-2 in Escherichia coli clinical isolate assessed as MIC for meropenem antibacterial activity at 32 ug/ml (reference value: 8 ug/ml); details: dose 32.0 µg/ml
[42] = system: Klebsiella pneumoniae; test: Inhibition of Metallo-beta-lactamase IMP-28 in Klebsiella pneumoniae clinical isolate assessed as fold reduction in meropenem MIC at 64 ug/ml; details: dose 64.0 µg/ml
[43] = system: Enterobacter cloacae; test: Inhibition of Enterobacter cloacae Metallo-beta-lactamase IMP-1
[44] = system: Enterobacter cloacae; test: Antibacterial activity against beta-lactamase IMP1 producing Enterobacter cloacae clinical isolate measured upto 128 ug/ml; assay type: functional, organism-based
[45] = system: Klebsiella pneumoniae; test: Substrate activity at Klebsiella pneumoniae beta-lactamase IMP-28 assessed as compound hydrolysis by measuring Kcat by Michaelis-Menten analysis
[46] = system: Escherichia coli; test: Substrate activity at Escherichia coli beta-lactamase VIM-2 assessed as compound hydrolysis by measuring Km by Michaelis-Menten analysis

For O=C(Cc1ccccc1)N[C@@H]1C(=O)N2C(C(=O)O)=C(CS[C@H](Cc3ccccc3)C(=O)O)CS[C@H]12, the kcat/Km [1] was 821000 M⁻¹ s⁻¹, the Activity [2] was “inactive” and the IC50 [3] was 4.7 µM. The IC50 [4] was 16 µM, the MIC [5] was less than 0.063 µg/mL and the fold change (FC) [6] was 32. It also gave a fold change (FC) [7] greater than 64, an MIC [8] of 4 µg/mL (≈ 7.8 µM) and a fold change (FC) [9] of 4. The Km [10] was 21.2 µM, the MIC [11] was 0.5 µg/mL (≈ 0.975 µM) and the Drug metabolism [12] was “Metabolite_Detected”. For the same compound, the Activity [13] was “inactive”, the fold change (FC) [14] was 2 and the MIC [15] was less than 0.063 µg/mL. The remaining at 15 h [16] was greater than 95%, the fold change (FC) [17] was 64 and the kcat/Km [18] was 546000 M⁻¹ s⁻¹. For the same compound, the kcat [19] was 2.35 s⁻¹, the Km [20] was 249 µM and the fold change (FC) [21] was 4. The fold change (FC) [22] was 4, the kcat [23] was 17.4 s⁻¹ and the fold change (FC) [24] was greater than 64. The MIC [25] was 16 µg/mL (≈ 31.2 µM), the fold change (FC) [26] was 2 and the Activity [27] was “inactive”. The inhibition [28] was “Active”, the IC50 [29] was 94 µM and the Stability [30] was “Stable”. The MIC [31] was less than 0.063 µg/mL, the kcat/Km [32] was 11000 M⁻¹ s⁻¹ and the MIC [33] was 2 µg/mL (≈ 3.9 µM). The MIC [34] was 1 µg/mL (≈ 1.95 µM), the MIC [35] was 8 µg/mL (≈ 15.6 µM) and the MIC [36] was 1 µg/mL (≈ 1.95 µM). It also gave a fold change (FC) [37] of 2, an IC50 [38] of 1.1 µM and an MIC [39] of 8 µg/mL (≈ 15.6 µM). For the same compound, the fold change (FC) [40] was 32, the MIC [41] was 4 µg/mL (≈ 7.8 µM) and the fold change (FC) [42] was greater than 64. The inhibition [43] was “Active”, the Activity [44] was “inactive” and the kcat [45] was 2.83 s⁻¹. It also gave a Km [46] of 4.3 µM.

— ChEMBL document CHEMBL5034010, “Novel Cephalosporin Conjugates Display Potent and Selective Inhibition of Imipenemase-Type Metallo-β-Lactamases” (J Med Chem, 2021)
